Results taken from article PMC8116589, “Distinguishing Signal From Noise in Immunopeptidome Studies of Limiting-Abundance Biological Samples: Peptides Presented by I-A^b in C57BL/6 Mouse Thymus” (Frontiers in Immunology, 2021).
Where no end group is shown, it is not given here. [ ]: non-standard residue; d: D form.

T1: I-A^b (Mus musculus, UniProt P14434+P14483)
T1 sequence (P14434 24-218 limits assumed): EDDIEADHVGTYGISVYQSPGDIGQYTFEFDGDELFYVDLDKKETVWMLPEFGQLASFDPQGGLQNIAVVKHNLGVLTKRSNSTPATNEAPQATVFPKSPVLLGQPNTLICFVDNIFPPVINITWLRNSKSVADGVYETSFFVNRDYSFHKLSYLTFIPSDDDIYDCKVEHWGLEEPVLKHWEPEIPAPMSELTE
T1 sequence (P14483 28-226 limits assumed): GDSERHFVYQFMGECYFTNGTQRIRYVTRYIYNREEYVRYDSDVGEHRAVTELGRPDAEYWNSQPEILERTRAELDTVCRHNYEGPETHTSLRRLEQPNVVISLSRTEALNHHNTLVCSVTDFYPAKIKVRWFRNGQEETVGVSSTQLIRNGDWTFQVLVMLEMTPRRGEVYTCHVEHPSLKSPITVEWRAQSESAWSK

B1: … (Histone H2AX peptide) (peptide)
peptide: AVLLPKKSSATVGPKAPAVGK
B2: … (TGF-beta receptor type-2 peptide) (peptide)
peptide: VGTARYMAPEVLESRM
B3: … (Hematological and neurological expressed 1 protein peptide) (peptide)
peptide: EKPVPAAPVPSPVAPAP
B4: … (NEDD4 family-interacting protein 1 peptide) (peptide)
peptide: FPKPPSYNVATTLPSYDE
B5: … (Protein Ighv2-2 peptide) (peptide)
peptide: GGSTDYNAAFISRLS
B6: … (Marginal zone B- and B1-cell-specific protein peptide) (peptide)
peptide: IYEAYRQGQANLEAL
B7: … (Tissue alpha-L-fucosidase peptide) (peptide)
peptide: GIVNLKSPKTTSATKI
B8: … (Protein EVI2B peptide) (peptide)
peptide: KPTVTVVSPLPNDSINPQP
B9: … (Protein tyrosine phosphatase receptor type C-associated protein peptide) (peptide)
peptide: SDLHAFSGSAAWDDS
B10: … (B-cell differentiation antigen CD72 peptide) (peptide)
peptide: DGELTYENVQVSPVPGGPP
B11: … (TGF-beta receptor type-2 peptide) (peptide)
peptide: VGTARYMAPEVLESR
B12: … (Tenascin peptide) (peptide)
peptide: ATVSWRAPTAQVESFR
B13: … (Prostaglandin-H2 D-isomerase isoform 2 peptide) (peptide)
peptide: APGHYTYSSPHSGSIH
B14: … (CCR4-NOT transcription complex subunit 3 peptide) (peptide)
peptide: APTSALGPKASPAPS
B15: … (Fc receptor-like A peptide) (peptide)
peptide: GPGSREAASPVAITVQE
B16: … (Semaphorin-4D peptide) (peptide)
peptide: GRKFVYAGSNSGVVQ
B17: … (Sortilin-related receptor peptide) (peptide)
peptide: GIDPYDQPNAIYIER
B18: … (Complement C4-B peptide) (peptide)
peptide: ARYIYGKPVQGVAYTR
B19: … (78 kDa glucose-regulated protein peptide) (peptide)
peptide: ITPSYVAFTPEGERL
B20: … (Murinoglobulin-1 peptide) (peptide)
peptide: GKYTYGKPVPGHVKI
B21: … (Sortilin-related receptor peptide) (peptide)
peptide: RVLIPYQGPSSDYVVVK
B22: … (Heat shock protein HSP 90-beta peptide) (peptide)
peptide: LSSGFSLEDPQTHSNRIY
B23: … (Gelsolin isoform 2 peptide) (peptide)
peptide: AMLQVLGPKPALPEG
B24: … (Protein Igha peptide) (peptide)
peptide: KDITTVNFPPALASGGG
B25: … (Alpha-enolase peptide) (peptide)
peptide: PSRYITPDQLADLYK
B26: … (B-cell antigen receptor complex-associated protein alpha chain peptide) (peptide)
peptide: GTTGQLFFPEVNKNHR
B27: … (Complement receptor type 2 peptide) (peptide)
peptide: LLPKYSFAKPSIVSDK
B28: …mV (Murinoglobulin-1 peptide) (peptide)
peptide: LEISYTGSRPASN[code m]V
modifications: not fully specified; printed as LEISYTGSRPASNmV (Murinoglobulin-1 peptide)
B29: … (T-lymphocyte surface antigen Ly-9 peptide) (peptide)
peptide: HLNTYDGSHTLRVSQS
B30: … (Nucleophosmin peptide) (peptide)
peptide: VEEDAESEDEDEEDVKLLGMSGK
B31: … (Platelet endothelial cell adhesion molecule isoform 4 peptide) (peptide)
peptide: KPSIFHDAKSEIIKGHA
B32: … (Protein tyrosine phosphatase receptor type C-associated protein peptide) (peptide)
peptide: SDLHAFSGSAAWDDSAG
B33: … (Beta-2-microglobulin peptide) (peptide)
peptide: YVTQFHPPHIEIQ
B34: … (Inter alpha-trypsin inhibitor, heavy chain 4 peptide) (peptide)
peptide: AGKLQDQGPDVLLAKVS
B35: … (Alpha-enolase peptide) (peptide)
peptide: HIADLAGNPEVILPVPA
B36: … (Protein shisa-5 isoform 2 peptide) (peptide)
peptide: GPPPYHESLAGASQPP
B37: … (B-cell antigen receptor complex-associated protein alpha chain peptide) (peptide)
peptide: PGQGTTGQLFFPEVNKN
B38: … (Serum albumin peptide) (peptide)
peptide: LVRYTQKAPQVSTPTLV
B39: … (Retinoid-inducible serine carboxypeptidase peptide) (peptide)
peptide: KWKALYTDPKSSETA
B40: … (Apolipoprotein E peptide) (peptide)
peptide: TNPIITPVAQENQ
B41: … (H-2 class II histocompatibility antigen, A beta chain peptide) (peptide)
peptide: HNYEGPETHTSLRRL
B42: … (H-2 class II histocompatibility antigen, A beta chain peptide) (peptide)
peptide: SLRRLEQPNVVISLSR
B43: … (L-amino-acid oxidase isoform 2 peptide) (peptide)
peptide: GALLLNAPVVSITQGR
B44: … (Ig mu chain C region peptide) (peptide)
peptide: LPQEKYVTSAPMPEPG
B45: … (Gelsolin isoform 2 peptide) (peptide)
peptide: AAYLWVGAGASEAEKT
B46: q… (Complement C3 peptide) (peptide)
peptide: QQLAFKQPSSAYAAFN

Biological target: T1, I-A^b
Assay: biochemical
Procedure: A fluorescence polarization (FP) assay was used to measure the IC50 of using N-terminally-acetylated CLIP peptide labeled with Alexa Fluor 488 tetrafluorophenyl ester (Invitrogen, Carlsbad, CA) via the primary amine at K3 as probe peptide as previously described ([34]). The binding reactions were carried in buffer conditions of 100 mM sodium citrate, 50 mM sodium chloride, 0.1% octyl β-D-glucopyranoside, 5 mM ethylenediaminetetraacetic acid, 0.1% sodium azide, 0.2 mM iodoacetic acid, 1 mM dithiothreitol). […] Thrombin is added during all the reactions at a concentration of 1U/ug and inactivated after 3hrs of reaction using 0.1mM phenylmethanesulfonyl fluoride. […] For calculating IC50 values, 100 nM I-A^b-3R was incubated with 25 nM Alexa488-labeled CLIP probe peptide, in combination with a serial dilution of test peptides, beginning at 100 µM followed by 5-fold dilutions in presence of 0.5µM HLA-DM. The reaction mixture was incubated at 37°C. The capacity of each test peptide to compete for binding of probe peptide was measured by FP after 72 h at 37°C. The assay was read using a Victor X5 Multilabel plate reader (PerkinElmer, Shelton, CT). FP values were converted to fraction bound by calculating [(FP_sample - FP_free)/(FP_no_comp - FP_free)], where FP_sample represents the FP value in the presence of test peptide; FP_free represents the value for free Alexa488-conjugated CLIP peptide; and FP_no_comp represents values in the absence of competitor peptide. We plotted fraction bound versus concentration of test peptide and fit the curve to the equation y = 1/(1 +[pep]/IC50), where [pep] is the concentration of test peptide, y is the fraction of probe peptide bound at that concentration of test peptide, and IC50 is the 50% inhibitory concentration of the test peptide.

Molecule | IC50 [µM]
LVRYTQKAPQVSTPTLV | 0.765
LPQEKYVTSAPMPEPG | 0.562
AVLLPKKSSATVGPKAPAVGK | 13.6
GPPPYHESLAGASQPP | 1.5
FPKPPSYNVATTLPSYDE | 0.231
DGELTYENVQVSPVPGGPP | 1.36
ARYIYGKPVQGVAYTR | 0.153
ISKQEYDESGPSIVHR | 15.2
AGKLQDQGPDVLLAKVS | 0.378
ATVSWRAPTAQVESFR | 0.407
APTSALGPKASPAPS | 2.3
QVLSWSSPVGSRTLA | 0.152
PHPYPALTPEQKKELSDIAHRIVAPGKG | 10.9
RVLIPYQGPSSDYVVVK | 0.275
SDLHAFSGSAAWDDSAG | 1.92
VGTARYMAPEVLESRM | 0.306
GIDPYDQPNAIYIER | 0.167
AAYLWVGAGASEAEKT | 0.276
GRKFVYAGSNSGVVQ | 1.48

Molecule | IC50 [µM]
ITPSYVAFTPEGERL | 1.89
PSRYITPDQLADLYK | 2.91
GIVNLKSPKTTSATKI | 12.8
KPSIFHDAKSEIIKGHA | 4.96
AQRAGYKAAIVHNVDS | 2.42
AGTGVDNVDLEAATR | 57.5
RVTIAQGGVLPNIQ | 26
GTTGQLFFPEVNKNHR | 2.64
KWKALYTDPKSSETA | 3.45
VEEDAESEDEDEEDVKLLGMSGK | 111
IYEAYRQGQANLEAL [IYEAYRQGQANLEAL] | 1.37
PGQGTTGQLFFPEVNKN | 2.9
SLRRLEQPNVVISLSR | 0.0938
SDLHAFSGSAAWDDS | 1.09
GALLLNAPVVSITQGR | 1.66
YSMGMHTYQVG | 74.1
APGHYTYSSPHSGSIH | 1.58
LLPKYSFAKPSIVSDK | 0.179
GGSTDYNAAFISRLS | 4.96

Molecule | IC50 [µM]
HNYEGPETHTSLRRL | 0.797
LPGELAKHAVSEGTKA | 32
YVTQFHPPHIEIQ | 1.07
IRRYGVSQPDAVAAWK | 0.25
KDITTVNFPPALASGGG | 0.97
AMLQVLGPKPALPEG | 1.17
HLNTYDGSHTLRVSQS | 1.36
HIADLAGNPEVILPVPA | 13.9
TNPIITPVAQENQ | 1.74
GKYTYGKPVPGHVKI | 0.399
NVLRIINEPTAAAIA | 0.337
LSSGFSLEDPQTHSNRIY | 13.3
NDWTVDHPQTLFAWEG | 0.445
KPTVTVVSPLPNDSINPQP | 2.25
GPGSREAASPVAITVQE | 0.467
EKPVPAAPVPSPVAPAP | 1.14
VGTARYMAPEVLESR | 0.197
LNLPTGIPIVYEL | 54.4

Biological target: soluble I-A^b-3R, mouse MHC-II protein (recombinant I-A^b) (mouse)
Assay: fluorescence polarisation; competition: 100 nM I-A^b-3R (3R cut off by thrombin, 1 U/ug), 25 nM Alexa488-labeled CLIP probe peptide, test peptide from 100 uM in 5-fold dilutions, 0.5 uM HLA-DM, read after 72 h at 37 C; 100 mM sodium citrate, 50 mM NaCl, 0.1% octyl glucoside, 5 mM EDTA, 1 mM DTT; three independent experiments, mean and SD

Molecule | IC50 [µM]
B1 | 13.6
B2 | 0.306
B3 | 1.14
B4 | 0.231
B5 | 4.96
B6 | 1.37
B7 | 12.8
B8 | 2.25
B9 | 1.09
B10 | 1.36
B11 | 0.197
B12 | 0.407
B13 | 1.58
B14 | 2.3
B15 | 0.467
B16 | 1.48
B17 | 0.167
B18 | 0.153
B19 | 1.89
B20 | 0.399
B21 | 0.275
B22 | 13.3
B23 | 1.18

Molecule | IC50 [µM]
B24 | 0.97
B25 | 2.91
B26 | 2.64
B27 | 0.179
B28 | 0.349
B29 | 1.36
B30 | 111
B31 | 4.96
B32 | 1.92
B33 | 1.07
B34 | 0.378
B35 | 13.9
B36 | 1.5
B37 | 2.9
B38 | 0.765
B39 | 3.45
B40 | 1.74
B41 | 0.797
B42 | 0.0938
B43 | 1.67
B44 | 0.562
B45 | 0.276
B46 | 0.17
